Assay results taken from patent US9388174B2, “Azole benzene derivative” (TEIJIN PHARMA LIMITED, priority 2013, dated 2016).

Each compound was assayed against T1, oxidase-type xanthine oxidoreductase (from buttermilk) (Bos taurus, UniProt P80457) (assay: xanthine oxidase inhibitory activity (change of absorbance at 290 nm)). Details: xanthine substrate, read-out: Inhibitor Activity.
T1 construct: purchased Calbiochem Novabiochem Corp; host or cells: buttermilk (natural source)
Assay type: biochemical
Description: Test compound was dissolved in DMSO (manufactured by Sigma Co.) to prepare a 20 mM solution. The solution was adjusted to an optimal concentration and used for the testing.
This evaluation was carried out by measuring oxidase-type xanthine oxidoreductase activity. Concretely, a xanthine (manufactured by Sigma Co.) solution was prepared at 10 mM using a 20 mM sodium hydroxide solution and then mixed with 100 mM phosphate buffer to adjusted to 30 μM. 75 μL of the solution was added to each well of the 96-well plate. The test compound diluted with DMSO at 100 times of a final concentration was added to each well at 1.5 μL per well. […] Immediately after mixing, the change of absorbance at 290 nm was measured for 5 minutes. The enzyme activity of DMSO solution without test compound was used as 100% control, and the inhibitory rate of the test compounds was calculated. Fifty percent inhibitory concentration of the test compounds on the oxidase-type xanthine oxidoreductase activity was calculated by fitting to the dose-response curve.

T1 sequence (P80457 whole entry): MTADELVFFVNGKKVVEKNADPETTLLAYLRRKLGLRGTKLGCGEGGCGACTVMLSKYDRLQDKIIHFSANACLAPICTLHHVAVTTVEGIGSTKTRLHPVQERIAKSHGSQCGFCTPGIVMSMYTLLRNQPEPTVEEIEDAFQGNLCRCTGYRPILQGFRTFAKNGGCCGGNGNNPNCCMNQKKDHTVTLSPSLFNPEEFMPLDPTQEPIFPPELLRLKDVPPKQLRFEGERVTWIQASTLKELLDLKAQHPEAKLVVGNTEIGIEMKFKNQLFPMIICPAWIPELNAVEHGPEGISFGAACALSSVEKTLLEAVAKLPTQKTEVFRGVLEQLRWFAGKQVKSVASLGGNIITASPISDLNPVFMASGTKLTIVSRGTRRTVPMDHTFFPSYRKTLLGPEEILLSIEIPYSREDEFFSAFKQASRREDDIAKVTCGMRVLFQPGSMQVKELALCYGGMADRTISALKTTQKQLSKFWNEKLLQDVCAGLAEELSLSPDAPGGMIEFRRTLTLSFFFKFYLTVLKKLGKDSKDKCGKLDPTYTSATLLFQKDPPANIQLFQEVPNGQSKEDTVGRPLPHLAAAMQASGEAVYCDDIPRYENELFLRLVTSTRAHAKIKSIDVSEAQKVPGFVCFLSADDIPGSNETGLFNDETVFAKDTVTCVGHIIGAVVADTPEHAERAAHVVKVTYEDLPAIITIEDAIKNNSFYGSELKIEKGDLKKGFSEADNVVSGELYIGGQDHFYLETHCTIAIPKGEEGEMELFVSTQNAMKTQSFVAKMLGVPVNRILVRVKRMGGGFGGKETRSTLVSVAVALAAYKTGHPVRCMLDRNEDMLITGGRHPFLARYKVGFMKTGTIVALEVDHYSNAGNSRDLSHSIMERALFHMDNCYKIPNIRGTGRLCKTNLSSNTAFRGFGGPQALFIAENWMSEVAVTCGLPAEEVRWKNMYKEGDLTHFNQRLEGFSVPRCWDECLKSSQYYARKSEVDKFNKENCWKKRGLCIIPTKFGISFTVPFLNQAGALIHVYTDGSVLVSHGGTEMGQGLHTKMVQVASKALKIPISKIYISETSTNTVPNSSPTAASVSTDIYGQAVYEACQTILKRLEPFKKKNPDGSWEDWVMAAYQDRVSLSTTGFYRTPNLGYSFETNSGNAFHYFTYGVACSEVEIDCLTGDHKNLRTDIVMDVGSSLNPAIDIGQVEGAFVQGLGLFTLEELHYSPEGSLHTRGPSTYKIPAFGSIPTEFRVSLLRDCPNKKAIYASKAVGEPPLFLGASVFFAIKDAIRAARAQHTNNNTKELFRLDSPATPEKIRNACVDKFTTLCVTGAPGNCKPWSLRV

Row | Structure (SMILES) | IC50
1 | Cc1nc(-c2ccc(OCC(C)(C)C)c(-n3cnnn3)c2)sc1C(=O)O [compound 26, 2-[4-(2,2-dimethylpropoxy)-3-(1H-1,2,3,4-tetrazol-1-yl)phenyl]-4-methyl-1,3-thiazole-5-carboxylic acid] | 1 to 5 nM
2 | Cc1nc(-c2ccc(OCC3CCC3)c(-n3cnnn3)c2)sc1C(=O)O [compound 27, 2-[4-(cyclobutylmethoxy)-3-(1H-1,2,3,4-tetrazol-1-yl)phenyl]-4-methyl-1,3-thiazole-5-carboxylic acid] | 1 to 5 nM
3 | Cc1nc(-c2ccc(OC3CCCC3)c(-n3cnnn3)c2)sc1C(=O)O [compound 28, 2-[4-(cyclopentyloxy)-3-(1H-1,2,3,4-tetrazol-1-yl)phenyl]-4-methyl-1,3-thiazole-5-carboxylic acid] | 1 to 5 nM
4 | Cc1nc(-c2ccc(Oc3ccccc3F)c(-n3cnnn3)c2)sc1C(=O)O [compound 34, 2-[4-(2-fluorophenoxy)-3-(1H-1,2,3,4-tetrazol-1-yl)phenyl]-4-methyl-1,3-thiazole-5-carboxylic acid] | 1 to 5 nM
5 | COc1ccccc1Oc1ccc(-c2nc(C)c(C(=O)O)s2)cc1-n1cnnn1 [compound 35, 2-[4-(2-methoxyphenoxy)-3-(1H-1,2,3,4-tetrazol-1-yl)phenyl]-4-methyl-1,3-thiazole-5-carboxylic acid] | 1 to 5 nM
6 | Cc1nc(-c2ccc(Oc3c(F)cccc3F)c(-n3cnnn3)c2)sc1C(=O)O [compound 36, 2-[4-(2,6-difluorophenoxy)-3-(1H-1,2,3,4-tetrazol-1-yl)phenyl]-4-methyl-1,3-thiazole-5-carboxylic acid] | 1 to 5 nM
7 | Cc1cccc(Oc2ccc(-c3nc(C)c(C(=O)O)s3)cc2-n2cnnn2)c1 [compound 38, 2-[4-(3-methylphenoxy)-3-(1H-1,2,3,4-tetrazol-1-yl)phenyl]-4-methyl-1,3-thiazole-5-carboxylic acid] | 1 to 5 nM
8 | Cc1nc(-c2ccc(Oc3ccccc3Cl)c(-n3cnnn3)c2)sc1C(=O)O [compound 39, 2-[4-(2-chlorophenoxy)-3-(1H-1,2,3,4-tetrazol-1-yl)phenyl]-4-methyl-1,3-thiazole-5-carboxylic acid] | 1 to 5 nM
9 | Cc1cc(F)ccc1Oc1ccc(-c2nc(C)c(C(=O)O)s2)cc1-n1cnnn1 [compound 41, 2-[4-(4-fluoro-2-methylphenoxy)-3-(1H-1,2,3,4-tetrazol-1-yl)phenyl]-4-methyl-1,3-thiazole-5-carboxylic acid] | 1 to 5 nM
10 | COc1cccc(F)c1Oc1ccc(-c2nc(C)c(C(=O)O)s2)cc1-n1cnnn1 [compound 43, 2-[4-(2-fluoro-6-methoxyphenoxy)-3-(1H-1,2,3,4-tetrazol-1-yl)phenyl]-4-methyl-1,3-thiazole-5-carboxylic acid] | 1 to 5 nM
11 | Cc1ccccc1Oc1ccc(-c2nc(C)c(C(=O)O)s2)cc1-n1cnnn1 [compound 44, 2-[4-(2-methylphenoxy)-3-(1H-1,2,3,4-tetrazol-1-yl)phenyl]-4-methyl-1,3-thiazole-5-carboxylic acid] | 1 to 5 nM
12 | Cc1cc(F)cc(Oc2ccc(-c3nc(C)c(C(=O)O)s3)cc2-n2cnnn2)c1 [compound 46, 2-[4-(3-fluoro-5-methylphenoxy)-3-(1H-1,2,3,4-tetrazol-1-yl)phenyl]-4-methyl-1,3-thiazole-5-carboxylic acid] | 1 to 5 nM
13 | Cc1ccc(F)c(Oc2ccc(-c3nc(C)c(C(=O)O)s3)cc2-n2cnnn2)c1 [compound 48, 2-[4-(2-fluoro-5-methylphenoxy)-3-(1H-1,2,3,4-tetrazol-1-yl)phenyl]-4-methyl-1,3-thiazole-5-carboxylic acid] | 1 to 5 nM
14 | Cc1nc(-c2ccc(SC(C)C)c(-n3cnnn3)c2)sc1C(=O)O [compound 50, 4-methyl-2-[4-(propan-2-ylsulfanyl)-3-(1H-1,2,3,4-tetrazol-1-yl)phenyl]-1,3-thiazole-5-carboxylic acid] | 1 to 5 nM
15 | Cc1ccc(Sc2ccc(-c3nc(C)c(C(=O)O)s3)cc2-n2cnnn2)cc1 [compound 51, 4-methyl-2-{4-[(4-methylphenyl)sulfanyl]-3-(1H-1,2,3,4-tetrazol-1-yl)phenyl}-1,3-thiazole 5-carboxylic acid] | 1 to 5 nM

The next lines start with the values.

Row | IC50 | Structure (SMILES)
16 | > 10 nM | Cc1nc(-c2ccc(Oc3ccccc3)c(-n3ccnn3)c2)sc1C(=O)O [compound 22, 4-methyl-2-[4-phenoxy-3-(1H-1,2,3-triazol-1-yl)phenyl]-1,3-thiazole-5-carboxylic acid]
17 | 1 to 5 nM | CC(C)Oc1ccc(-c2ncc(C(=O)O)s2)cc1-n1cnnn1 [compound 31, 2-[4-(propan-2-yloxy)-3-(1H-1,2,3,4-tetrazol-1-yl)phenyl]-1,3 thiazole-5-carboxylic acid]
18 | 1 to 5 nM | CC(C)COc1ccc(-c2ncc(C(=O)O)s2)cc1-n1cnnn1 [compound 32, 2-[4-(2-methylpropoxy)-3-(1H-1,2,3,4-tetrazol-1-yl)phenyl]-1,3 thiazole-5-carboxylic acid]
19 | 1 to 5 nM | Cc1nc(-c2ccc(Oc3cccc(F)c3)c(-n3cnnn3)c2)sc1C(=O)O [compound 37, 2-[4-(3-fluorophenoxy)-3-(1H-1,2,3,4-tetrazol-1-yl)phenyl]-4-methyl-1,3-thiazole-5-carboxylic acid]
20 | 1 to 5 nM | Cc1cc(Oc2ccc(-c3nc(C)c(C(=O)O)s3)cc2-n2cnnn2)ccc1F [compound 40, 2-[4-(4-fluoro-3-methylphenoxy)-3-(1H-1,2,3,4-tetrazol-1-yl)phenyl]-4-methyl-1,3-thiazole-5-carboxylic acid]
21 | 1 to 5 nM | Cc1nc(-c2ccc(Oc3ccc(F)cc3F)c(-n3cnnn3)c2)sc1C(=O)O [compound 42, 2-[4-(2,4-difluorophenoxy)-3-(1H-1,2,3,4-tetrazol-1-yl)phenyl]-4-methyl-1,3-thiazole-5-carboxylic acid]
22 | 1 to 5 nM | Cc1ccc(Oc2ccc(-c3nc(C)c(C(=O)O)s3)cc2-n2cnnn2)cc1 [compound 45, 2-[4-(4-methylphenoxy)-3-(1H-1,2,3,4-tetrazol-1-yl)phenyl]-4-methyl-1,3-thiazole-5-carboxylic acid]
23 | 1 to 5 nM | Cc1nc(-c2ccc(Oc3cc(F)ccc3F)c(-n3cnnn3)c2)sc1C(=O)O [compound 47, 2-[4-(2,5-difluorophenoxy)-3-(1H-1,2,3,4-tetrazol-1-yl)phenyl]-4-methyl-1,3-thiazole-5-carboxylic acid]

The compounds below were run on level of uric acid in the plasma (assay: Hypouricemic effect (oxonic acid-induced hyperuricemic beagle dogs)). Details: hyperuricemic beagle dog, oral, 10 mg/kg, 8 hours after administration.
Assay type: in vivo
Description: Potassium oxonate (50 mg/kg) was subcutaneously administrated before and 4 hours after compound administration. After the blood was collected from the cephalic vein at 8 hours after administration, the plasma was separated. The level of uric acid in the plasma sample was measured by LC-MS/MS method and the percentage of hypouricemic effect was determined by the following expression: Percentage of hypouricemic effect (%)=(Level of uric acid of the control animal−Level of uric acid of the test compound-administered animal)×100/Level of uric acid of the control animal.

Row | Structure (SMILES) | hypouricemic effect
24 | Cc1nc(-c2ccc(OCC(C)C)c(-n3cnnn3)c2)sc1C(=O)O [Compound No. 25, 4-methyl-2-[4-(2-methylpropoxy)-3-(1H-1,2,3,4-tetrazol-1-yl)phenyl]-1,3-thiazole-5-carboxylic acid] | showed a hypouricemic effect
